These results are taken from US20200396973A1, “PSORIASIS-INDUCED ANIMAL MODEL AND USE THEREOF” (CUROGEN TECHNOLOGY CO., LTD., priority 2016, published 2020).

The experiment deals with Peli1 transgenic mice (rtTA-Peli1). On the procedure: Tissues of mice were fixed using 10% neutral buffered formalin to produce paraffin blocks. Sections having a thickness of 3 μm were obtained from the paraffin blocks, and then stained with hematoxylin & eosin (H&E). In the case of immunohistochemistry, staining was performed using an anti-K14 antibody, an anti-Ki67 antibody, an anti-CD31 antibody, and an anti-CD3 antibody, followed by mounting using a mounting medium containing a DAPI reagent. Images of the stained tissue samples were acquired using an AxioCam digital microscope camera and AxioVision image processing software (Carl Zeiss).

As to `CN(Cc1cnc2nc(N)nc(N)c2n1)c1ccc(C(=O)N[C@@H](CCC(=O)O)C(=O)O)cc1` [methotrexate], for the setting “rtTA-Peli1 mice with psoriasis phenotypes after doxycycline, intraperitoneal injection for a certain period, FIG. 8D”, the “thickness of the skin” value is “about half of the thickness of the skin was reduced”. The “increase in the thickness of the skin according to the proliferation of epidermal cells (H&E staining)” value (rtTA-Peli1 mice, doxycycline 12 weeks, after administration of CsA or MTX, FIG. 8B) is recorded as “still observed”. For the same molecule, the “phenotypes of parakeratosis, hyperkeratosis, rete ridge, and microabscess (skin layer structure, H&E staining)” value (rtTA-Peli1 mice, doxycycline 12 weeks, then CsA 6 times a week or MTX 4 times a week intraperitoneally, FIG. 8B) was “most of the phenotypes of parakeratosis, hyperkeratosis, rete ridge, and microabscess shown in the Peli1 transgenic mice (rtTA-Peli1) disappeared”. Also, under “rtTA-Peli1 mice, doxycycline 12 weeks, then intraperitoneal injection for a certain period, scoring per Table 1, FIG. 8C”, the psoriasis phenotype score entry was “reduced”.
